Columns and labels:
[1] = system: Sp2/0 cells; assay: Growth of Sp2/0 cells in transferrin-free CD Hybridoma medium with metal binding compounds; type: cell-based; settings: third passage
Procedure: The ability of iron metal binding compounds to support cellular growth in the absence of transferrin was evaluated using Sp2/0 cells maintained in CD Hybridoma medium (Life Technologies, Rockville, Md.). Stock cultures containing 5 μg/mL human holo-transferrin were prepared in CD Hybridoma medium. For metal binding compound evaluation, Sp2/0 cells were established at an initial viable cell density of 0.5×10^5 cells/mL in stationary culture using 75 cm^2 tissue culture flasks in a final volume of 20 mL. All cultures were maintained at 37° C. in humidified air containing 8% CO2. To eliminate transferrin carry-over effects, cells were subcultured at the same seeding density at 4 day intervals for a total of three passages. Positive control cultures contained 5 μg/mL human holotransferrin while negative control cultures were established in the absence of either transferrin or metal binding compound. Metal binding compound stocks were prepared at 0.1M-0.2M in ddH2O and solubilized when necessary using 5N NaOH or HCl. Iron complexes were established using 0.2M metal binding compound and iron stocks mixed 1:1 (v/v) and incubated for 5-10 minutes at 22° C. All solutions containing metal binding compounds were filter sterilized using a 0.22 μm Millex-GV filter prior to addition to transferrin and serum-free media.
In most cases, metal binding compounds were evaluated either alone or in combination with ferric chloride or ferrous sulfate at 25 μM, 50 μM and 100 μM. Values in the table represent the mean percentage of control growth for duplicate cultures determined at the third passage.
(§1) When added to the medium formulation un-complexed, the metal binding compound is listed alone, when added as a complex with a transition metal, the source of the transition metal is listed with the metal binding compound.

[2] = system: 293 cells; assay: Growth of 293 cells in transferrin-free 293 SFM with metal binding compounds; type: cell-based; settings: third passage
Procedure: Semi-confluent adherent cultures of 293 Cells (ATCC, CRL 1573) are readily adapted to suspension culture. The cells are first detached with a solution of Trypsin-EDTA (0.05% Trypsin, 0.53 mM Na4EDTA), and then resuspended in conventional medium supplemented with 10% FBS to inhibit the trypsin. The resuspended cells are centrifuged at 200×g for five minutes. The cell pellet is resuspended in 293 SFM (available from Life Technologies, Rockville, Md.) the formulation of which is described in WO 98/08934 which is specifically incorporated herein by reference. Alternatively, the cells may be detached with Versene (Na4EDTA, 0.53 mM) and resuspended in 293 SFM.
The initial seeding density of the 293 cells after conversion to suspension culture is 1×10^6 cells/mL. The cells are shaken on a rotary shaker at 150 rpm in a 37° C. incubator equilibrated with 8% CO2-92% air. When the cells reach a density of 1.5×10^6 cells/mL they are diluted with 293 SFM to a density of 3.0×10^5 cells/mL. Because 293 cells have a tendency to aggregate, the cells may be vortexed vigorously for approximately 45 seconds to obtain a predominantly single cell suspension at the time of passaging and counting. After several passages in suspension culture, the maximum achievable density may be determined.
The ability of metal binding compounds to support cellular growth was evaluated using 293 cells maintained in 293 SFM (Life Technologies, Rockville, Md.) without transferrin or metal binding compound. Stock cultures containing 5 μg/mL human holo-transferrin were prepared in 293 SFM. For metal binding compound evaluation, 293 cells were established in 125 mL shaker flasks at an initial viable seeding density of 2×10^5 cells/mL in a final volume of 20 mL. All cultures were maintained at 37° C. in humidified air containing 8% CO2. To eliminate transferrin carry-over effects, cells were subcultured at 4 day intervals for a total of three passages. At each subculturing, cells were seeded at a density of 2×10^5 cells/mL. Positive control cultures contained 5 μg/mL human holo-transferrin while negative control cultures were established in the absence of either transferrin or metal binding compound. Metal binding compound stocks were prepared at 0.1M-0.2M in ddH2O and solubilized when necessary using 5N NaOH or HCl. Iron complexes were established using 0.2M metal binding compound and iron stocks mixed 1:1 (v/v) and incubated for 5-10 minutes at 22° C. All solutions containing metal binding compounds were filter sterilized using a 0.22 μm Millex-GV filter prior to addition to transferrin and serum-free media.
In most cases, metal binding compounds were evaluated either alone or in combination with ferric chloride or ferrous sulfate at 25 μM, 50 μM and 100 μM. When used in combination, the metal binding compounds were used in equimolar concentration with iron ions. Values in the table represent the mean percentage of control growth for duplicate cultures determined at the third passage.
as §1

[3] = 25 μM, control = 5 μg/mL human holo-transferrin, duplicate cultures
[4] = 50 μM, control = 5 μg/mL human holo-transferrin, duplicate cultures
[5] = 100 μM, control = 5 μg/mL human holo-transferrin, duplicate cultures

| Structure (SMILES) | mean percentage of control growth [1, 3] | mean percentage of control growth [1, 4] | mean percentage of control growth [1, 5] | mean percentage of control growth [2, 3] | mean percentage of control growth [2, 4] | mean percentage of control growth [2, 5] | further results |
| --- | --- | --- | --- | --- | --- | --- | --- |
| Cc1occc(=O)c1O.[Cl][Fe]([Cl])[Cl] [3-Hydroxy-2-Methyl-4-Pyrone · Ferric Chloride] | 60% | 71% | 75% | – | – | – | – |
| [O-][n+]1cccc(O)c1 [3-Hydroxypyridine-N-Oxide] | – | – | – | 4% | 4% | 4% | – |
| [Cl][Fe]([Cl])[Cl].c1ccc(-c2ccccn2)nc1 [2,2-Dipyridyl · Ferric Chloride] | – | – | – | 51% | 96% | 0% | – |
| O=C(O)c1cccnc1O.[Cl][Fe]([Cl])[Cl] [2-Hydroxynicotinic Acid · Ferric Chloride] | 64% | 82% | 85% | – | – | – | mean percentage of control growth ([2]; 100 μM (row note: 293 tested at 100, 150, 200 μM; first column)): 0%; mean percentage of control growth ([2]; 150 μM (row note: 293 tested at 100, 150, 200 μM; second column)): 0%; mean percentage of control growth ([2]; 200 μM (row note: 293 tested at 100, 150, 200 μM; third column)): 99% |
| Cc1occc(=O)c1O [3-Hydroxy-2-Methyl-4-Pyrone (Maltol), 3-Hydroxy-2-Methyl-4-Pyrone] | 0% | 0% | 0% | 0% | 28% | 81% | – |
| NC(Cn1ccc(=O)c(O)c1)C(=O)O.[Cl][Fe]([Cl])[Cl] (stereo not drawn) [Mimosine · Ferric Chloride] | – | – | – | 64% | 55% | 80% | – |
| O=C(O)c1ccccn1.O=S(=O)([O-])[O-].[Fe+2] [2-Pyridinecarboxylic Acid · Ferrous Sulfate] | – | – | – | 67% | 48% | 0% | – |
| CC(=O)NO.[Cl][Fe]([Cl])[Cl] [Acetohydroxamic Acid · Ferric Chloride] | – | – | – | 83% | 22% | 0% | mean percentage of control growth ([1]; 5 μM, control = holo-transferrin): 40%; mean percentage of control growth ([1]; 10 μM, control = holo-transferrin): 48%; mean percentage of control growth ([1]; 20 μM, control = holo-transferrin): 47% |
| O=C(O)CN(CC(=O)O)CC(=O)O.O=S(=O)([O-])[O-].[Fe+2] [Nitriloacetic Acid · Ferrous Sulfate] | – | – | – | 75% | 95% | 0% | – |
| OC1C(O)C(O)C(O)C(O)C1O.[Cl][Fe]([Cl])[Cl] (stereo not drawn) [Myo-Inositol · Ferric Chloride] | – | – | – | 79% | 87% | 85% | – |
| NC(=O)CC(N)C(=O)O.[Cl][Fe]([Cl])[Cl] (stereo not drawn) [Asparagine · Ferric Chloride] | 36% | 51% | 54% | – | – | – | – |
| O=[N+]([O-])c1ncccc1O.[Cl][Fe]([Cl])[Cl] [3-Hydroxy-2-Nitropyridine · Ferric Chloride] | 52% | 62% | 72% | – | – | – | – |
| O=S(=O)([O-])[O-].[Fe+2].[O-][n+]1cccc(O)c1 [3-Hydroxypyridine-N-Oxide · Ferrous Sulfate] | – | – | – | 104% | 58% | 0% | – |
| O=C(O)CN(CCN(CC(=O)O)CC(=O)O)CCN(CC(=O)O)CC(=O)O.[Cl][Fe]([Cl])[Cl] [Diethylenetriamine Penta-Acetic Acid · Ferric Chloride] | – | – | – | 79% | 96% | 102% | – |
| O=C(O)CN(CC(=O)O)CC(=O)O [Nitriloacetic Acid] | 0% | 0% | 0% | – | – | – | – |
| CC(=O)N[C@@H](CS)C(=O)O.[Cl][Fe]([Cl])[Cl] [N-Acetyl-Cysteine · Ferric Chloride] | – | – | – | 88% | 82% | 52% | – |
| NCC(=O)O.[Cl][Fe]([Cl])[Cl] [Glycine · Ferric Chloride] | 34% | 61% | 56% | 81% | 71% | 72% | – |
| O=S(=O)([O-])[O-].OC[C@@H](O)[C@@H](O)[C@H](O)[C@@H](O)CO.[Fe+2] [Sorbitol · Ferrous Sulfate] | – | – | – | 58% | 69% | 83% | – |
| C1COCCN1.[Cl][Fe]([Cl])[Cl] [Morpholine · Ferric Chloride] | 54% | 64% | 81% | – | – | – | – |
| NC(CCC(=O)O)C(=O)O.[Cl][Fe]([Cl])[Cl] (stereo not drawn) [Glutamic Acid · Ferric Chloride] | – | – | – | 102% | 68% | 83% | – |

— patent US6767741B1, “Metal binding compounds and their use in cell culture medium compositions” (Invitrogen Corporation, priority 1999, dated 2004)
